Measured values as given in patent US20100160454A1, “ANTIMICROBIAL AGENTS, COMPOSITIONS AND PRODUCTS CONTAINING THE SAME, AND METHODS OF USING THE COMPOSITIONS AND PRODUCTS” (Eastman Chemical Company, priority 2008, published 2010).

Assays:
Assay in all cases: Microbiological challenge testing in BPW broth, graded subculture counts
Type in all cases: cell-based
Aeromonas sp. Wild type = test system: Aeromonas sp. Wild type
How it was run: (§1)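 Serial 1:10 dilutions were made in pH 7.2 phosphate buffer and spread-plated onto PCA, and colonies were counted after 48 h or more at 35 °C. In the challenge, BPW–dextrose tubes containing the test material received inoculum at 10^5–10^6 CFU/mL at time zero. Controls without test material served as reference.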

[1] = test system: Bacillus subtilis Wild type
How it was run: as §1

[2] = test system: Escherichia coli ATCC 25922; details: E. Coli
How it was run: as §1

[3] = test system: Proteus vulgaris Wild type
How it was run: as §1

[4] = test system: Pseudomonas aeruginosa Wild type; details: P. aeruginosa
How it was run: as §1

[5] = test system: Staphylococcus aureus ATCC 25923; details: S. aureus
How it was run: as §1

## O=C([O-])CN(CCN(CC(=O)[O-])CC(=O)O)CC(=O)O.[Na+].[Na+] [EDTA, Na2EDTA]
Aeromonas sp. Wild type; 0.5% weight/volume
  Aeromonas sp growth grade, 3 day: 5 (More than 10,000 colonies estimated (thus more than 100,000 CFU/mL))
  Aeromonas sp growth grade, 14 day: 4 (1000 to 10,000 colonies countable (thus 10,000 CFU/mL to 100,000 CFU/mL))
  Aeromonas sp growth grade, 30 day: 4 (1000 to 10,000 colonies countable (thus 10,000 CFU/mL to 100,000 CFU/mL))
Aeromonas sp. Wild type; 1.25% weight/volume
  Aeromonas sp growth grade, 3 day: 4 (1000 to 10,000 colonies countable (thus 10,000 CFU/mL to 100,000 CFU/mL))
  Aeromonas sp growth grade, 14 day: 4 (1000 to 10,000 colonies countable (thus 10,000 CFU/mL to 100,000 CFU/mL))
  Aeromonas sp growth grade, 30 day: 4 (1000 to 10,000 colonies countable (thus 10,000 CFU/mL to 100,000 CFU/mL))
Aeromonas sp. Wild type; 2.5% weight/volume
  Aeromonas sp growth grade, 3 day: 3 (100 to 1000 colonies (thus 1000 to 10,000 CFU/mL))
  Aeromonas sp growth grade, 14 day: 2 (52 to 100 colonies counted (thus 520 to 1000 CFU/mL))
  Aeromonas sp growth grade, 30 day: 1 (0 to 51 colonies counted (thus 10 to 510 CFU/mL based on 0.1-mL sample))
Aeromonas sp. Wild type; 5.0% weight/volume
  Aeromonas sp growth grade, 3 day: 1 (0 to 51 colonies counted (thus 10 to 510 CFU/mL based on 0.1-mL sample))
  Aeromonas sp growth grade, 14 day: 0
  Aeromonas sp growth grade, 30 day: 0
[1]; 0.5% weight/volume
  B. subtillis growth grade, 3 day: 4 (1000 to 10,000 colonies countable (thus 10,000 CFU/mL to 100,000 CFU/mL))
  B. subtillis growth grade, 14 day: 4 (1000 to 10,000 colonies countable (thus 10,000 CFU/mL to 100,000 CFU/mL))
  B. subtillis growth grade, 30 day: 4 (1000 to 10,000 colonies countable (thus 10,000 CFU/mL to 100,000 CFU/mL))
[1]; 1.25% weight/volume
  B. subtillis growth grade, 3 day: 2 (52 to 100 colonies counted (thus 520 to 1000 CFU/mL))
  B. subtillis growth grade, 14 day: 2 (52 to 100 colonies counted (thus 520 to 1000 CFU/mL))
  B. subtillis growth grade, 30 day: 2 (52 to 100 colonies counted (thus 520 to 1000 CFU/mL))
[1]; 2.5% weight/volume
  B. subtillis growth grade, 3 day: 0
  B. subtillis growth grade, 14 day: 0
  B. subtillis growth grade, 30 day: 0
[1]; 5.0% weight/volume
  B. subtillis growth grade, 3 day: 0
  B. subtillis growth grade, 14 day: 0
  B. subtillis growth grade, 30 day: 0
[2]; 0.5% (wt/vol), 3 day
  Grade: 5 (More than 10,000 colonies estimated (thus more than 100,000 CFU/mL))
[2]; 0.5% (wt/vol), 14 day
  Grade: 5 (More than 10,000 colonies estimated (thus more than 100,000 CFU/mL))
[2]; 0.5% (wt/vol), 30 day
  Grade: 5 (More than 10,000 colonies estimated (thus more than 100,000 CFU/mL))
[2]; 1.25% (wt/vol), 3 day
  Grade: 4 (1000 to 10,000 colonies countable (thus 10,000 CFU/mL to 100,000 CFU/mL))
[2]; 1.25% (wt/vol), 14 day
  Grade: 4 (1000 to 10,000 colonies countable (thus 10,000 CFU/mL to 100,000 CFU/mL))
[2]; 1.25% (wt/vol), 30 day
  Grade: 4 (1000 to 10,000 colonies countable (thus 10,000 CFU/mL to 100,000 CFU/mL))
[2]; 2.5% (wt/vol), 3 day
  Grade: 0
[2]; 2.5% (wt/vol), 14 day
  Grade: 0
[2]; 2.5% (wt/vol), 30 day
  Grade: 0
[2]; 5.0% (wt/vol), 3 day
  Grade: 0
[2]; 5.0% (wt/vol), 14 day
  Grade: 0
[2]; 5.0% (wt/vol), 30 day
  Grade: 0
[3]; 0.5% weight/volume
  P. vulgaris growth grade, 3 day: 5 (More than 10,000 colonies estimated (thus more than 100,000 CFU/mL))
  P. vulgaris growth grade, 13 day: 4 (1000 to 10,000 colonies countable (thus 10,000 CFU/mL to 100,000 CFU/mL))
  P. vulgaris growth grade, 30 day: 4 (1000 to 10,000 colonies countable (thus 10,000 CFU/mL to 100,000 CFU/mL))
[3]; 1.25% weight/volume
  P. vulgaris growth grade, 3 day: 3 (100 to 1000 colonies (thus 1000 to 10,000 CFU/mL))
  P. vulgaris growth grade, 13 day: 1 (0 to 51 colonies counted (thus 10 to 510 CFU/mL based on 0.1-mL sample))
  P. vulgaris growth grade, 30 day: 3 (100 to 1000 colonies (thus 1000 to 10,000 CFU/mL))
[3]; 2.5% weight/volume
  P. vulgaris growth grade, 3 day: 4 (1000 to 10,000 colonies countable (thus 10,000 CFU/mL to 100,000 CFU/mL))
  P. vulgaris growth grade, 13 day: 4 (1000 to 10,000 colonies countable (thus 10,000 CFU/mL to 100,000 CFU/mL))
  P. vulgaris growth grade, 30 day: 4 (1000 to 10,000 colonies countable (thus 10,000 CFU/mL to 100,000 CFU/mL))
[3]; 5.0% weight/volume
  P. vulgaris growth grade, 3 day: 4 (1000 to 10,000 colonies countable (thus 10,000 CFU/mL to 100,000 CFU/mL))
  P. vulgaris growth grade, 13 day: 4 (1000 to 10,000 colonies countable (thus 10,000 CFU/mL to 100,000 CFU/mL))
  P. vulgaris growth grade, 30 day: 4 (1000 to 10,000 colonies countable (thus 10,000 CFU/mL to 100,000 CFU/mL))
[4]; 0.5% (wt/vol), 3 day
  Grade: 4 (1000 to 10,000 colonies countable (thus 10,000 CFU/mL to 100,000 CFU/mL))
[4]; 0.5% (wt/vol), 13 day
  Grade: 4 (1000 to 10,000 colonies countable (thus 10,000 CFU/mL to 100,000 CFU/mL))
[4]; 0.5% (wt/vol), 30 day
  Grade: 4 (1000 to 10,000 colonies countable (thus 10,000 CFU/mL to 100,000 CFU/mL))
[4]; 1.25% (wt/vol), 3 day
  Grade: 4 (1000 to 10,000 colonies countable (thus 10,000 CFU/mL to 100,000 CFU/mL))
[4]; 1.25% (wt/vol), 13 day
  Grade: 4 (1000 to 10,000 colonies countable (thus 10,000 CFU/mL to 100,000 CFU/mL))
[4]; 1.25% (wt/vol), 30 day
  Grade: 4 (1000 to 10,000 colonies countable (thus 10,000 CFU/mL to 100,000 CFU/mL))
[4]; 2.5% (wt/vol), 3 day
  Grade: 4 (1000 to 10,000 colonies countable (thus 10,000 CFU/mL to 100,000 CFU/mL))
[4]; 2.5% (wt/vol), 13 day
  Grade: 3 (100 to 1000 colonies (thus 1000 to 10,000 CFU/mL))
[4]; 2.5% (wt/vol), 30 day
  Grade: 4 (1000 to 10,000 colonies countable (thus 10,000 CFU/mL to 100,000 CFU/mL))
[4]; 5.0% (wt/vol), 3 day
  Grade: 0
[4]; 5.0% (wt/vol), 13 day
  Grade: 0
[4]; 5.0% (wt/vol), 30 day
  Grade: 0
[5]; 0.5% (wt/vol), 3 day
  Grade: 4 (1000 to 10,000 colonies countable (thus 10,000 CFU/mL to 100,000 CFU/mL))
[5]; 0.5% (wt/vol), 14 day
  Grade: 4 (1000 to 10,000 colonies countable (thus 10,000 CFU/mL to 100,000 CFU/mL))
[5]; 0.5% (wt/vol), 30 day
  Grade: 4 (1000 to 10,000 colonies countable (thus 10,000 CFU/mL to 100,000 CFU/mL))
[5]; 1.25% (wt/vol), 3 day
  Grade: 2.7
[5]; 1.25% (wt/vol), 14 day
  Grade: 2 (52 to 100 colonies counted (thus 520 to 1000 CFU/mL))
[5]; 1.25% (wt/vol), 30 day
  Grade: 2 (52 to 100 colonies counted (thus 520 to 1000 CFU/mL))
[5]; 2.5% (wt/vol), 3 day
  Grade: 1 (0 to 51 colonies counted (thus 10 to 510 CFU/mL based on 0.1-mL sample))
[5]; 2.5% (wt/vol), 14 day
  Grade: 0.3
[5]; 2.5% (wt/vol), 30 day
  Grade: 0.3
[5]; 5.0% (wt/vol), 3 day
  Grade: 0
[5]; 5.0% (wt/vol), 14 day
  Grade: 0
[5]; 5.0% (wt/vol), 30 day
  Grade: 0
